Experimental data reported in ChEMBL document CHEMBL3046491, “cis-Configuration: a new tactic/rationale for neonicotinoid molecular design” (2011).

Key:
Type in all cases: functional
[1] = system: Nilaparvata lugens; assay: Ratio of imidacloprid LC50 to compound LC50 for imidacloprid-resistant Nilaparvata lugens (brown planthopper)
[2] = system: Nilaparvata lugens; assay: Insecticidal activity against imidacloprid-resistant Nilaparvata lugens (brown planthopper) assessed as drug concentration required to induce mortality per pest
[3] = system: Aphis craccivora; assay: Insecticidal activity against Aphis craccivora (cowpea aphid) assessed as mortality at 500 mg/L
[4] = system: Nilaparvata lugens; assay: Insecticidal activity against imidacloprid-sensitive Nilaparvata lugens (brown planthopper) assessed as drug concentration required to induce mortality per pest
[5] = system: Aphis craccivora; assay: Insecticidal activity against Aphis craccivora (cowpea aphid) assessed as mortality

SMILES	mortality at 500 µg/mL [3]	other results
Cl.O=[N+]([O-])/C(=C\c1ccco1)C1=NCCN1Cc1ccc(Cl)nc1		RatioLC50 [1]: 30; LC50 [2]: 0.7312 ng
CCCCN1CC([N+](=O)[O-])=C2N(CC3COCO3)CCN2C1 (centres undefined)	0%	
CN1CC([N+](=O)[O-])=C2N(CC3COCO3)CCN2C1 (centres undefined)	0%	
CCCCN1CC([N+](=O)[O-])=C2N(Cc3ccc(Cl)nc3)C[C@H]3CCC[C@H]3N2C1 (relative stereo)	30%	
O=[N+]([O-])C1=C2N(Cc3ccc(Cl)nc3)CCN2[C@H]2CCC[C@@H]1O2	87%	LC50 [2]: 18.9795 ng; LC50 [4]: 4.144 ng
O=[N+]([O-])C1=C2N(Cc3ccc(Cl)nc3)CCN2[C@H](c2ccco2)[C@@](C2=NCCN2Cc2ccc(Cl)nc2)([N+](=O)[O-])[C@H]1c1ccco1	87%	
O=[N+]([O-])C1=C2N(Cc3ccc(Cl)nc3)C[C@H]3CCC[C@H]3N2CN(CCO)C1 (relative stereo)	30%	
CC(C)N1CC([N+](=O)[O-])=C2N(CC3COCO3)CCN2C1 (centres undefined)	0%	
CCN1CC([N+](=O)[O-])=C2N(Cc3ccc(Cl)nc3)C[C@H]3CCC[C@H]3N2C1 (relative stereo)	30%	
CN1CC([N+](=O)[O-])=C2N(Cc3ccc(Cl)nc3)C[C@H]3CCC[C@H]3N2C1	30%	
CCN1CC([N+](=O)[O-])=C2N(CC3COCO3)CCN2C1 (centres undefined)	0%	
O=[N+]([O-])C1=C2N(Cc3ccc(Cl)nc3)CCN2[C@@H]2CC[C@H]1O2		RatioLC50 [1]: 50; LC50 [2]: 0.4925 ng; LC50 [4]: 0.0742 ng
O=[N+]([O-])C1=C2N(CC3COCO3)CCN2CN(CCO)C1 (centres undefined)	0%	
O=[N+]([O-])/N=C1\NCCN1Cc1ccc(Cl)nc1 [IMIDACLOPRID]		LC50 [2]: 22.1614 ng; LC50 [5]: 31 µM
CC(C)N1CC([N+](=O)[O-])=C2N(Cc3ccc(Cl)nc3)C[C@H]3CCC[C@H]3N2C1 (relative stereo)	30%	
CCCN1CC([N+](=O)[O-])=C2N(CC3COCO3)CCN2C1 (centres undefined)	0%	
CCCN1CC([N+](=O)[O-])=C2N(Cc3ccc(Cl)nc3)C[C@H]3CCC[C@H]3N2C1 (relative stereo)	30%	
O=[N+]([O-])C1=C2N(Cc3ccc(Cl)nc3)CCN2[C@H](c2ccco2)[C@@](C2=NCCN2Cc2ccc(Cl)nc2)([N+](=O)[O-])[C@@H]1c1ccco1		RatioLC50 [1]: 10
